Measurements: ChEMBL document CHEMBL5108052, “Histone Deacetylase and Enhancer of Zeste Homologue 2 Dual Inhibitors Presenting a Synergistic Effect for the Treatment of Hematological Malignancies” (J Med Chem, 2022)

Experiments:
[1] = Binding affinity to recombinant PRC2 complex (unknown origin) incubated for 90 seconds by surface plasmon resonance assay; design: species or system Homo sapiens
[2] = species on record: Homo sapiens; conditions: time 90.0 sec
[3] = biological target: T1, Polyamine deacetylase HDAC10 (Homo sapiens, UniProt Q969S8); assay: Inhibition of HDAC10 (unknown origin) incubated for 2 hrs by Multimode microplate reader analysis
T1 sequence (Q969S8 whole entry): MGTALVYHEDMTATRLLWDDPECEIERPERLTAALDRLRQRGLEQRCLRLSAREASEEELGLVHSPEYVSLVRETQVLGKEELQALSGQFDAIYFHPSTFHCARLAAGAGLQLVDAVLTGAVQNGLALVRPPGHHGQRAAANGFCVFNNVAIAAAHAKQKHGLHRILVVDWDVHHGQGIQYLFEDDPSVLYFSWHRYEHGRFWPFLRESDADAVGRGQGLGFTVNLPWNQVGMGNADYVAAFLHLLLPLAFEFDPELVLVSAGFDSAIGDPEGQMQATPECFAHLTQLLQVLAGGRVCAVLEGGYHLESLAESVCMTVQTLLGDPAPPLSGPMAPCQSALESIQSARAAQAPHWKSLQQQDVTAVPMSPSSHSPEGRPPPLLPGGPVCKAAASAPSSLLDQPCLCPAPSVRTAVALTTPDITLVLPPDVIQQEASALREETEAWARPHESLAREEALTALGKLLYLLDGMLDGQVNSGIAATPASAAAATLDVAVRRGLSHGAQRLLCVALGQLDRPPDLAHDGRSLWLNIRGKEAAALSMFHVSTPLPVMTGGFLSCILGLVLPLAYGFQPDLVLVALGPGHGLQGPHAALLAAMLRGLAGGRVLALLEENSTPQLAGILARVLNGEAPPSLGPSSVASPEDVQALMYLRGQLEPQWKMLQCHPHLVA

[4] = test system: MV4-11; assay: Induction of apoptosis in human MV4-11 cells assessed as viable cells at 0.4 uM measured after 48 hrs by Annexin V/7-AAD-dual staining based flow cytometric analysis (reference value: 96.4 %); assay type: functional; conditions: read-out: Activity
[5] = test system: MV4-11; assay: Induction of mitochondrial membrane potential in human MV4-11 cells assessed as reduction in red fluorescence intensity at 0.1 uM measured after 48 hrs by JC1 staining-based flow cytometry analysis (reference value: 98.8%); assay type: functional; design: scale not given: the % may be the effect or the level left
[6] = test system: MV4-11; assay: Antitumor activity against human MV4-11 cells xenografted in BALB/c nude mouse assessed as tumor growth inhibition at 50 mg/kg, ip administered for 20 days in presence of by vernier caliper analysis; assay type: functional; conditions: MV4-11, 480 h, time 20 day, read-out: TGI
[7] = biological target: T2, Histone deacetylase 11 (Homo sapiens, UniProt Q96DB2); assay: Inhibition of N-terminal Strep2-tagged recombinant His-tagged human HDAC11 (1 to 347 residues) using trifluoroacetyl lysine as substrate incubated for 2 hrs by Multimode microplate reader analysis
T2 sequence (Q96DB2 whole entry): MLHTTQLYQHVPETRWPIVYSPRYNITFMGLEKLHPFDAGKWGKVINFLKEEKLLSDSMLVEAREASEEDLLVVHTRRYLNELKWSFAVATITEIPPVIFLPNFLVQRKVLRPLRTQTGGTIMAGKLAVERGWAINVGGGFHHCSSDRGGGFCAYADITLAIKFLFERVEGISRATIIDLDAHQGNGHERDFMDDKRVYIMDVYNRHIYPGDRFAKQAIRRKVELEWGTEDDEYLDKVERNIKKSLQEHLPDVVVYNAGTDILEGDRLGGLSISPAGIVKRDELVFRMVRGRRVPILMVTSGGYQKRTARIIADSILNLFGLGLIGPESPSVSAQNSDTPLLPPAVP

[8] = test system: MV4-11; assay: Induction of apoptosis in human MV4-11 cells assessed as early apoptotic cells at 0.1 uM measured after 48 hrs by Annexin V/7-AAD-dual staining based flow cytometric analysis (reference value: 2.2 %); assay type: functional
[9] = test system: MV4-11; assay: Induction of apoptosis in human MV4-11 cells assessed as early apoptotic cells at 0.2 uM measured after 48 hrs by Annexin V/7-AAD-dual staining based flow cytometric analysis (reference value: 2.2 %); assay type: functional
[10] = test system: MV4-11; assay: animal or person; assay type: functional, Homo sapiens; conditions: Mus musculus, MV4-11, 480 h, route ip, time 20 day, read-out: TGI
[11] = test system: MV4-11; assay: Induction of apoptosis in human MV4-11 cells assessed as necrotic cells at 0.2 uM measured after 48 hrs by Annexin V/7-AAD-dual staining based flow cytometric analysis (reference value: 0.3 %); assay type: functional
[12] = test system: L02; assay: Cytotoxicity against human L02 cells assessed as increase in combination index measured after 72 hrs by CCK-8 assay; assay type: toxicity, cell-based; conditions: l02, 72 h
[13] = test system: MV4-11; assay: Induction of apoptosis in human MV4-11 cells assessed as necrotic cells at 0.4 uM measured after 48 hrs by Annexin V/7-AAD-dual staining based flow cytometric analysis (reference value: 0.3 %); assay type: functional

In the case of `Cc1cc(C)c(CNC(=O)c2cc(-c3ccc(N4CCN(c5ncc(C(=O)NO)cn5)CC4)nc3)cc3c2cnn3C(C)C)c(=O)[nH]1`, the Kd [1] is reported as 39 nM, the Ka [2] is reported as 2.18 10^5/M/s and the IC50 [3] is reported as 1470 nM. For the same compound, the viability at 0.4 µM [4] was 53.8%, the Activity [5] was 92.9% and the inhibition in vivo at 50 mg/kg [6] was 65.7%. It also gave an IC50 [7] of 2560 nM, an Activity [8] of 5.4% and an Activity [9] of 10.3%. The inhibition in vivo at 100 mg/kg [10] was 82%, the Activity [11] was 2% and the Activity [12] was “Toxic”. The Activity [13] was 0.1%.
